Results: US4483989A, “Synthesis of pyrido[4,3-b]carbazole derivatives” (priority 1973, dated 1984)
Values joined by “and” are separate entries in the source; they are usually repeats but may differ in a detail not shown here. Identical values can stand only once. Like-named read-outs stand apart in the source and are kept apart here.

Legend:
Solubility = format: physicochemical
mouse L 1210 leukemia [1] = experiment: L1210 leukemia in mice: inoculum of 10^5 cells, single dose of compound 24 hours later; format: in vivo; settings: for ILS (increased life span) %: I.V., dose 1 (the sublethal dose), inoculum 10^5 L1210 cells; for Criterion (iv): persistence of the antileukemic action after an intravenous injection: L1210 in vivo
mouse L 1210 leukemia [2] = experiment: as above; format: in vivo; settings: for ILS (increased life span) % / % of killed cells / Mean survival in days for treated mice: inoculum 10^5 L1210 cells; for Cured animals: cured/total; for Criterion (i): ILS higher than 100%: intraperitoneal injection of 10^5 cells
From the text: The experimental tumor mouse L 1210 leukemia is commonly used to evaluate the effects of all the antitumor compounds now used in human therapeutics,as was described, for example, by C. C. ZUBROD in Proc. Nat. Acad. Sci. USA 69, 1972, pp. 1042-1047. This experimentally formed tumoral system permits very accurate quantitative evaluation of the activity of the compound tested and also, consequently, an objective comparison of the respective activities of various compounds, for example, according to the methods described by H. E. SKIPPER, F. M. SCHABEL Jr. and W. S. WILCOX in Cancer Chemiother. Rep. 1964, pp. 1-111 and 45, 1965, pp. 5-28.
(§1) The mice were randomized in each experimental series. A first routine experiment enable the death rate by toxicity to be determined and thus established the sublethal doses.
According to the convention in force in this field, the animals which survived longer than 45 days after inoculation of tumoral cells were considered to be cured.
(§2) To evaluate the therapeutic activity of the compounds of the invention, doses of said compound were expressed basing them on the 30 days sublethal dose which was fixed at 1.
A--A tumoral inoculum of 10^5 L1210 leukemia cells was administered by the intraperitoneal way to twenty 2 to 3 months old DBA/2 strain female mice. 24 hours later, half of said mice received a single intraperitoneal injection of a variable dose of the compound to be tested and the same volume of solvent was administered to the other half of the mice by the same way; this latter half of the group of mice was therefore used as the control series. The mice were randomized in each experimental series.
Animals surviving for longer than 45 days were considered to be cured.

[3] = for DLo (I.P.): single i.p. injection; for LDo (highest non lethal dose / sublethal dose) for mice: route not given
From the text: as §1, §2

[4] = Metabolic studies in mice
[5] = I.P., dose 0.01 of the sublethal dose
[6] = I.P., dose 0.05 of the sublethal dose
[7] = I.P., dose 0.1 of the sublethal dose
[8] = I.P., dose 0.5 of the sublethal dose
[9] = I.P., dose 1 (the sublethal dose)
[10] = I.P., dose 0.002 of the sublethal dose
[11] = I.P., dose 0.02 of the sublethal dose
[12] = I.P., dose 0.2 of the sublethal dose
[13] = I.P., dose 0.6 of the sublethal dose
[14] = I.P., dose 0.3 of the sublethal dose
[15] = I.P., dose 0.005 of the sublethal dose

Row | Compound | ILS (increased life span) % (mouse L 1210 leukemia [1]) | ILS (increased life span) % (mouse L 1210 leukemia [2]; [5]) | ILS (increased life span) % (mouse L 1210 leukemia [2]; [7]) | ILS (increased life span) % (mouse L 1210 leukemia [2]; [9]) | Criterion (ii): occurrence of cured animals (mouse L 1210 leukemia [2]; L1210 in vivo) | Criterion (i): ILS higher than 100% (mouse L 1210 leukemia [2]; L1210 in vivo) | DLo (I.V.) ([3]; mice, I.V.) | DLo (I.P.) ([3]; mice) | ILS (increased life span) % (mouse L 1210 leukemia [2]; [11]) | ILS (increased life span) % (mouse L 1210 leukemia [2]; [12]) | Chemotherapeutic index (mouse L 1210 leukemia [2]; L1210 in vivo) | other results
1 | CCn1c2ccc(O)cc2c2c(C)c3c[n+](CC)ccc3c(C)c21 [9-hydroxy-2,6-diethyl-ellipticinium acetate] | – | – | – | – | – | – | – | – | – | – | – | Solubility (Solubility): well water soluble; Solubility (Solubility; water, read-out: Concentration of easily prepared aqueous solution): 4 mg/mL
2 | Cc1c2cc[n+](CCO)cc2c(C)c2c1[nH]c1ccc(O)cc12 [9-hydroxy-2-hydroxyethyl-ellipticinium acetate] | 146% | 115% | 159% and 151% | 197% | + | + (increased life span (ILS) higher than 100% after intraperitoneal injection of 10^5 cells) | 20 mg/kg | 10 mg/kg | – | – | – | Criterion (iv): persistence of the antileukemic action after an intravenous injection (mouse L 1210 leukemia [1]): +; ILS (increased life span) % (mouse L 1210 leukemia [2]; [6]): 133%; ILS (increased life span) % (mouse L 1210 leukemia [2]; [8]): 217%; ILS (increased life span) % (mouse L 1210 leukemia [2]; I.P., dose 1.5 of the sublethal dose): 282%; ILS (increased life span) % (mouse L 1210 leukemia [2]; I.V., dose 0.25 of the sublethal dose): 121%; ILS (increased life span) % (mouse L 1210 leukemia [2]; I.V., dose 0.5 of the sublethal dose): 140%; ILS (increased life span) % (mouse L 1210 leukemia [2]; I.V., dose 2 × 0.5 of the sublethal dose): 142%; ILS (increased life span) % (mouse L 1210 leukemia [2]; I.V., dose 3 × 0.25 of the sublethal dose): 125%; Increased life span (ILS) (mouse L 1210 leukemia [2]; L1210 in vivo, dose LDo /2): 117%; Cured animals (mouse L 1210 leukemia [2]; L1210 in vivo, dose LDo /2): 2/15
3 | CC[n+]1ccc2c(C)c3[nH]c4ccc(O)cc4c3c(C)c2c1 [9-hydroxy-2-ethyl ellipticinium acetate, 9-hydroxy-2-ethyl-ellipticinium acetate] | 124% | 122% | 175% | 157% | + | + (increased life span (ILS) higher than 100% after intraperitoneal injection of 10^5 cells) | 15 mg/kg | 50 mg/kg | 132% | 219% | 75 | Criterion (iv): persistence of the antileukemic action after an intravenous injection (mouse L 1210 leukemia [1]): +; ILS (increased life span) % (mouse L 1210 leukemia [2]; [10]): 114%; ILS (increased life span) % (mouse L 1210 leukemia [2]; [6]): 132%; ILS (increased life span) % (mouse L 1210 leukemia [2]; I.P., dose 0.4 of the sublethal dose): 165%; ILS (increased life span) % (mouse L 1210 leukemia [2]; [13]): 188%; ILS (increased life span) % (mouse L 1210 leukemia [2]; I.V., dose 0.33 of the sublethal dose): 118%; Increased life span (ILS) (mouse L 1210 leukemia [2]; L1210 in vivo, dose LDo /5): 119%; Cured animals (mouse L 1210 leukemia [2]; L1210 in vivo, dose LDo /5): 3/20; DL100 (I.P.) ([3]; mice, I.P.): 100 mg/kg; DL 100 (I.V.) ([3]; mice, I.V.): 20 mg/kg
4 | CC[n+]1ccc2c(C)c3c(c(C)c2c1)c1cc(O)ccc1n3C [9-hydroxy-6-methyl-2-ethyl-ellipticinium acetate] | 115% | – | 127% | – | – | + (increased life span (ILS) higher than 100% after intraperitoneal injection of 10^5 cells) | 5 mg/kg | 50 mg/kg | – | 178% | – | ILS (increased life span) % (mouse L 1210 leukemia [2]; [13]): 202%; Increased life span (ILS) (mouse L 1210 leukemia [2]; L1210 in vivo, dose ≈ LDo /2): 102%
5 | 9-hydroxy-2(β-diisopropylamino-ethyl)-ellipticiniu acetate | – | – | 110% | 110% | – | – | – | – | – | – | – | Criterion (iv): persistence of the antileukemic action after an intravenous injection (mouse L 1210 leukemia [1]): +; % of killed cells (mouse L 1210 leukemia [2]; [7]): < 90%; Mean survival in days for treated mice (mouse L 1210 leukemia [2]; [7]): 10.7 days; % of killed cells (mouse L 1210 leukemia [2]; [9]): < 90%; Mean survival in days for treated mice (mouse L 1210 leukemia [2]; [9]): 10.9 days
6 | CCN(CC)CC[n+]1ccc2c(C)c3[nH]c4ccc(O)cc4c3c(C)c2c1 [9-hydroxy-2(β-diethylamino-ethyl)-ellipticinium acetate] | 112% | 137% | 173% | – | + | – | 5 mg/kg | 50 mg/kg | 139% | 151% | 100 | ILS (increased life span) % (mouse L 1210 leukemia [2]; [10]): 119%; ILS (increased life span) % (mouse L 1210 leukemia [2]; [14]): 243%; ILS (increased life span) % (mouse L 1210 leukemia [2]; [8]): 196%; Cured animals (mouse L 1210 leukemia [2]; L1210 in vivo, dose LDo /2): 6/20
7 | CC(=O)Oc1ccc2c(c1)c1c(C)c3c[n+](C)ccc3c(C)c1n2C [9-acetoxy-2,6-dimethyl-ellipticinium acetate] | – | – | – | – | – | – | – | – | – | – | – | Antitumoral activity on L1210 leukemia (comparison in words) (mouse L 1210 leukemia [2]; mouse, in vivo): comparable with that of the 9-hydroxy-2,6-dimethyl-ellipticinium acetate; LDo (highest non lethal dose / sublethal dose) for mice [3]: 50 mg/kg
8 | Cc1c2c[n+](C)ccc2c(C)c2c1c1cc(O)ccc1n2C [9-hydroxy-6-methyl-ellipticinium iodomethylate] | – | – | – | – | – | – | – | – | – | – | – | Solubility (Solubility): much more soluble than the 9-hydroxy-ellipticinium iodomethylate
9 | Cc1c2ccncc2c(C)c2c1[nH]c1ccccc12 [ellipticine] | – | – | – | – | – | – | – | – | – | – | – | Metabolism [4]: hydroxylated in the 9-position and then glucuroconjugated
10 | CC[n+]1ccc2c(C)c3[nH]c4ccc(OC(C)=O)cc4c3c(C)c2c1 [9-acetoxy-2-ethyl-ellipticinium acetate] | – | 134% | 157% | – | + | – | – | 50 mg/kg | 137% | – | 100 | ILS (increased life span) % (mouse L 1210 leukemia [2]; [15]): 114%; ILS (increased life span) % (mouse L 1210 leukemia [2]; [14]): 180%; ILS (increased life span) % (mouse L 1210 leukemia [2]; [13]): 191%; Cured animals (mouse L 1210 leukemia [2]; L1210 in vivo, dose LDo /3): 3/20
11 | Cc1c2c[n+](C)ccc2c(C)c2c1c1cc(O)ccc1n2C [9-hydroxy-2,6-dimethyl-ellipticinium acetate] | – | – | – | – | – | – | – | – | – | – | – | Therapeutic index (mouse L 1210 leukemia [2]; L1210): extremely high; LDo (highest non lethal dose / sublethal dose) for mice [3]: 50 mg/kg
12 | Cc1c2cc[n+](CCN3CCCCC3)cc2c(C)c2c1[nH]c1ccc(O)cc12 [9-hydroxy-2(β-piperidino-ethyl)-ellipticinium acetate] | – | 124% | 181% | 171% | + | + (increased life span (ILS) higher than 100% after intraperitoneal injection of 10^5 cells) | 10 mg/kg | 50 mg/kg | 131% | 202% | 100 | ILS (increased life span) % (mouse L 1210 leukemia [2]; [10]): 113%; ILS (increased life span) % (mouse L 1210 leukemia [2]; [15]): 119%; ILS (increased life span) % (mouse L 1210 leukemia [2]; I.V., dose 1 (the sublethal dose)): 131%; Increased life span (ILS) (mouse L 1210 leukemia [2]; L1210 in vivo, dose LDo /5): 102%; Cured animals (mouse L 1210 leukemia [2]; L1210 in vivo, dose LDo): 5/15; Criterion (iv): persistence of the antileukemic action after an intravenous injection (mouse L 1210 leukemia [2]; L1210 in vivo, intravenous injection): +
